Where two headings read alike, the source gives them in different places.
Tests used:
soybean = test: Test A preemergence; type: in vivo, Glycine max; settings: Glycine max, pre-emergence, 240 h, read-out: Plant response rating, Soybean; for plant injury at 125 g/ha: 125 g ai/ha; for plant injury at 500 g/ha: 500 g ai/ha
Method in brief: (§1)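 Plants were grown in loam and sand and treated preemergence or postemergence (one- to two-leaf stage, 2–10 cm) with compound in solvent plus surfactant. Response was scored against untreated controls after 10 greenhouse days, where 0 means no effect and 100 complete control.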

ragweed = test: Test A postemergence; type: in vivo, Ambrosia artemisiifolia; settings: Ambrosia artemisiifolia, post-emergence, 240 h, postemergence, 10 days, 0 to 100 scale (0 no effect, 100 complete control); for pest or weed control at 125 g/ha: 125 g ai/ha, read-out: Ragweed plant response rating; for pest or weed control at 500 g/ha: 500 g ai/ha, visual injury, read-out: Plant response rating, Ragweed
Method in brief: as §1

blackgrass [1] = test: Test A postemergence; type: in vivo, Alopecurus myosuroides; settings: Alopecurus myosuroides, post-emergence, 240 h, postemergence, 10 days, 0 to 100 scale (0 no effect, 100 complete control); for pest or weed control at 125 g/ha: 125 g ai/ha, read-out: Blackgrass plant response rating; for pest or weed control at 500 g/ha: 500 g ai/ha, visual injury, read-out: Plant response rating, Blackgrass
Method in brief: as §1

oat, wild = test: Test A postemergence; type: in vivo, Avena fatua; settings: Avena fatua, post-emergence, 240 h, postemergence, 10 days, 0 to 100 scale (0 no effect, 100 complete control); for pest or weed control at 125 g/ha: 125 g ai/ha, read-out: Oat, Wild plant response rating; for pest or weed control at 500 g/ha: 500 g ai/ha, visual injury, read-out: Plant response rating, Oat, Wild
Method in brief: as §1

pigweed, palmer [2] = test: Test A postemergence; type: in vivo, Amaranthus palmeri; settings: Amaranthus palmeri, post-emergence, 240 h, postemergence, 10 days, 0 to 100 scale (0 no effect, 100 complete control); for pest or weed control at 125 g/ha: 125 g ai/ha, read-out: Pigweed, Palmer plant response rating; for pest or weed control at 500 g/ha: 500 g ai/ha, visual injury, read-out: Plant response rating, Pigweed, Palmer
Method in brief: as §1

horseweed = test: Test A postemergence; type: in vivo, Erigeron canadensis; settings: Erigeron canadensis, post-emergence, 240 h, postemergence, 10 days, 0 to 100 scale (0 no effect, 100 complete control); for pest or weed control at 125 g/ha: 125 g ai/ha, read-out: Horseweed plant response rating; for pest or weed control at 500 g/ha: 500 g ai/ha, visual injury, read-out: Plant response rating, Horseweed
Method in brief: as §1

barnyardgrass = test: Test A postemergence; type: in vivo, Echinochloa crusgalli; settings: postemergence, 10 days
Method in brief: as §1

kochia = test: Test A preemergence; type: in vivo, Bassia scoparia; settings: Bassia scoparia, pre-emergence, 240 h, read-out: Plant response rating, Kochia; for pest or weed control at 125 g/ha: 125 g ai/ha; for pest or weed control at 500 g/ha: 500 g ai/ha
Method in brief: as §1

sedge, umbrella = test: Test B flooded paddy test; type: in vivo, Cyperus difformis; settings: Cyperus difformis, 312 h; 250 g ai/ha, Flood, 13 days, 0 to 100 scale (0 no effect, 100 complete control); read-out: Plant response rating, Sedge, Umbrella
Method in brief: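 Each species was raised to the 2-leaf stage. At treatment, each pot received floodwater 3 cm deep, with the chemical delivered into the water. Greenhouse holding followed for 13 days, then percent control was estimated visually versus untreated pots.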

ryegrass, Italian = test: Test A preemergence; type: in vivo, Lolium multiflorum; settings: Lolium multiflorum, pre-emergence, 240 h, read-out: Plant response rating, Ryegrass, Italian; for pest or weed control at 125 g/ha: 125 g ai/ha; for pest or weed control at 500 g/ha: 500 g ai/ha
Method in brief: as §1

pigweed, palmer [3] = test: Test A preemergence; type: in vivo, Amaranthus palmeri; settings: Amaranthus palmeri, pre-emergence, 240 h, read-out: Plant response rating, Pigweed, Palmer; for pest or weed control at 125 g/ha: 125 g ai/ha; for pest or weed control at 500 g/ha: 500 g ai/ha
Method in brief: as §1

blackgrass [4] = test: Test A preemergence; type: in vivo, Alopecurus myosuroides; settings: Alopecurus myosuroides, pre-emergence, 240 h, read-out: Plant response rating, Blackgrass; for pest or weed control at 125 g/ha: 125 g ai/ha; for pest or weed control at 500 g/ha: 500 g ai/ha
Method in brief: as §1

goosegrass [5] = test: Test A postemergence; type: in vivo, Eleusine indica; settings: Eleusine indica, post-emergence, 240 h, postemergence, 10 days, 0 to 100 scale (0 no effect, 100 complete control); for pest or weed control at 125 g/ha: 125 g ai/ha, read-out: Goosegrass plant response rating; for pest or weed control at 500 g/ha: 500 g ai/ha, visual injury, read-out: Plant response rating, Goosegrass
Method in brief: as §1

goosegrass [6] = test: Test A preemergence; type: in vivo, Eleusine indica; settings: Eleusine indica, pre-emergence, 240 h, visual injury after 10 days, 0 to 100 scale, 0 is no effect, 100 is complete control, read-out: Plant response rating, Goosegrass; for pest or weed control at 125 g/ha: 125 g ai/ha; for pest or weed control at 500 g/ha: 500 g ai/ha
Method in brief: as §1

[7] = visual injury after 10 days, 0 to 100 scale, 0 is no effect, 100 is complete control
[8] = 0 to 100 scale (0 no effect, 100 complete control), 10 days

| SMILES | plant injury at 125 g/ha (soybean; [7]) | pest or weed control at 125 g/ha (ragweed) | pest or weed control at 500 g/ha (ragweed) | pest or weed control at 125 g/ha (blackgrass [1]) | pest or weed control at 500 g/ha (blackgrass [1]) | pest or weed control at 125 g/ha (oat, wild) | pest or weed control at 500 g/ha (oat, wild) | pest or weed control at 125 g/ha (pigweed, palmer [2]) | pest or weed control at 500 g/ha (pigweed, palmer [2]) | pest or weed control at 125 g/ha (horseweed) | pest or weed control at 500 g/ha (horseweed) | pest or weed control at 125 g/ha (kochia; [7]) | pest or weed control at 250 g/ha (sedge, umbrella) | pest or weed control at 125 g/ha (ryegrass, Italian; [7]) | pest or weed control at 125 g/ha (pigweed, palmer [3]; [7]) | pest or weed control at 125 g/ha (blackgrass [4]; [7]) | plant injury at 500 g/ha (soybean; [7]) | pest or weed control at 500 g/ha (kochia; [7]) | pest or weed control at 125 g/ha (goosegrass [5]) | pest or weed control at 500 g/ha (goosegrass [5]) | further results |
| --- | --- | --- | --- | --- | --- | --- | --- | --- | --- | --- | --- | --- | --- | --- | --- | --- | --- | --- | --- | --- | --- |
| Cc1cccc2c1O[C@@H](C)CN2C(=O)c1cccc(-n2cnc(C3COC3)n2)c1 [Compound 109, [(2S)-2,3-Dihydro-2,8-dimethyl-4H-1,4-benzoxazin-4-yl][3-[3-(3-oxetanyl)-1H-1,2,4-triazol-1-yl]phenyl]methanone] | 30% | 0% | 50% | 70% | 90% | 80% | 80% | 60% | 60% | 10% | 30% | 60% | 98% | 80% | 90% | 80% | – | – | – | – | plant injury at 500 g/ha (soybean; [8]): 80%; Barnyardgrass plant response rating (barnyardgrass; 125 g ai/ha, 0 to 100 scale, 0 no effect, 100 complete control): 50; Plant response rating, Barnyardgrass (barnyardgrass; 500 g ai/ha, visual injury, 0 to 100 scale (0 no effect, 100 complete control)): 90; pest or weed control at 500 g/ha (kochia; [8]): 90%; pest or weed control at 500 g/ha (ryegrass, Italian; [8]): 100%; pest or weed control at 500 g/ha (pigweed, palmer [3]; [8]): 100%; pest or weed control at 500 g/ha (blackgrass [4]; [8]): 90% |
| Cc1cccc2c1O[C@@H](C)CN2C(=O)c1cccc(-n2cn[nH]c2=O)c1 [Compound 122, 4-[3-[[(2S)-2,3-Dihydro-2,8-dimethyl-4H-1,4-benzoxazin-4-yl]carbonyl]phenyl]-2,4-dihydro-3H-1,2,4-triazol-3-one] | 0% | 0% | 0% | 0% | 50% | 0% | 20% | 20% | 20% | 0% | 0% | 0% | 0% | 20% | 0% | 10% | 0% | 10% | 0% | 60% | pest or weed control at 500 g/ha (ryegrass, Italian; [7]): 70%; pest or weed control at 500 g/ha (pigweed, palmer [3]; [7]): 30%; pest or weed control at 500 g/ha (blackgrass [4]; [7]): 50%; pest or weed control at 125 g/ha (goosegrass [6]): 0%; pest or weed control at 500 g/ha (goosegrass [6]): 90% |
| C[C@H]1CN(C(=O)c2cccc(-c3cnn(C)n3)c2)c2cccc(Cl)c2O1 [Compound 127, [(2S)-8-Chloro-2,3-dihydro-2-methyl-4H-1,4-benzoxazin-4-yl][3-(2-methyl-2H-1,2,3-triazol-4-yl)phenyl]methanone] | 0% | 0% | 10% | 0% | 80% | 0% | 10% | 60% | 90% | 0% | 0% | 0% | 0% | 20% | 40% | 20% | 0% | 60% | 10% | 70% | pest or weed control at 500 g/ha (ryegrass, Italian; [7]): 90%; pest or weed control at 500 g/ha (pigweed, palmer [3]; [7]): 90%; pest or weed control at 500 g/ha (blackgrass [4]; [7]): 70%; pest or weed control at 125 g/ha (goosegrass [6]): 60%; pest or weed control at 500 g/ha (goosegrass [6]): 100% |

— patent US20260262643A1, “HERBICIDAL BENZOXAZINES” (FMC CORPORATION, priority 2022, published 2026)
